The record followed here is PMC12787074, “Involvement of Multiple Ion Channels and Receptors in Mediating the Insecticidal and Repellent Actions of Limonene” (International Journal of Molecular Sciences, 2025).

What all share (format): cell-based
Assay [1] addresses T1, AaegRdl1-1 (Rdl, resistance to dieldrin GABA receptor) (Aedes aegypti, UniProt Q16896).
T1 construct: AaegRdl1-1 clone expressed in Xenopus oocytes
The assay is described as follows: two-electrode voltage clamp in Xenopus oocytes; block of GABA current. A general note: In two-electrode clamp one electrode senses voltage and the other passes current.

The target in assay [2] is T1, AaegRdl1-1 (Rdl, resistance to dieldrin GABA receptor). The assay can be described thus: two-electrode voltage clamp in Xenopus oocytes; potentiation of […] GABA current.
Assay [3] shares this target. The assay is described as follows: two-electrode voltage clamp in Xenopus oocytes; agonist-evoked chloride current.

A word on the EC50: it is the concentration needed to bring the measured effect to its halfway point.

T1 sequence (Q16896 entry or part of it): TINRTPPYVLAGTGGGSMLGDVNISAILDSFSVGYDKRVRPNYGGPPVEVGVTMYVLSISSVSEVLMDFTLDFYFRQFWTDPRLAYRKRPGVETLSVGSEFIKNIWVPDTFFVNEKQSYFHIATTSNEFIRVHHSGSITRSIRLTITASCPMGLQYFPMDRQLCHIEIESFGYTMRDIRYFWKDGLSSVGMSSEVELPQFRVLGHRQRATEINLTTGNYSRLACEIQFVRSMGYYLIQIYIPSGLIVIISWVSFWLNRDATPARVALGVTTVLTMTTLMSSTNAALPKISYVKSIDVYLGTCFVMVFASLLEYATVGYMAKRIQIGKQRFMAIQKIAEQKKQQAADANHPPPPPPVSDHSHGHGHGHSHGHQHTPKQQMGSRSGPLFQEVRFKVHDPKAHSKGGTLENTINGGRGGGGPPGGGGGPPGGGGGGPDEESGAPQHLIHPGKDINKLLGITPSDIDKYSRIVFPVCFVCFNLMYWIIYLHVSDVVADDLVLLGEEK

In the case of `N#Cc1nn(-c2c(Cl)cc(C(F)(F)F)cc2Cl)c(N)c1[S+]([O-])C(F)(F)F` (stereo not drawn) [fipronil], in assay [1], the “two-electrode voltage clamp in Xenopus oocytes; block of GABA current” value is reported as “IGABA was blocked by the application of a positive control, fipronil, as expected (Supplementary Figure S2)”.

Consider `C=C(C)[C@H]1CC=C(C)CC1` [limonene], for which, in assay [2], the EC50 is 43.3 ± 4.6 µM.

In assay [3], `NCCCC(=O)O` [GABA] showed an EC50 of 204 ± 18.3 µM.
